Here are results for 4 compounds from US5112382A, “Halopropargyl compounds, compositions, uses and processes of preparation” (Rohm and Haas Company, priority 1990, dated 1992).

Test [1] has as its system Aureobasidium pullulans. Description: MIC, broth two-fold serial dilution test, Apul. Conditions: read-out: Minimum Inhibitory Concentration (MIC). Format: cell-based. The protocol: (§1) A minimum inhibitory concentration (MIC) value is obtained using a broth, two-fold serial dilution test performed as follows: […] A volume of the stock solution is dispensed into culture media to give an initial starting test concentration of 500 ppm compound. The test is carried out by adding and equal volume of broth to each vessel in the dilution series, except for the first vessel. The first vessel contains twice the volume of broth plus the initial concentration of test compound. One half of the broth from the first vessel is transferred to the second vessel. After being mixed, one half the resulting volume is removed from the second vessel and transferred to the third vessel. The entire cycle is repeated sufficiently to give a series of concentrations amounting to 500, 250, 125, 63, 31, 16, 8, and 4 ppm (or 100, 50, 25, 12.5, 6.2, 3.1, 1.6, and 0.8), respectively. Each vessel is then inoculated with a cell suspension of the appropriate test organism. Bacteria are grown in both and fungi on agar slats for a time and at a temperature appropriate to the species being tested. At the end of the growth period, the broth is vortexed to disperse the cells. In the case of fungi, the pores are harvested by pipetting water onto the slant and dislodging the spores with a sterile loop. The cell/spore suspension is standardized by controlling incubation time, temperature, and the volume of the diluent. The suspension is then used to inoculate the vessels containing the broth compound. The vessels are then incubated at the appropriate temperature. After the incubation, the vessels are examined for growth/no growth. The minimum inhibitory concentration (MIC) is defined as the lowest concentration of compound that results in complete inhibition of growth of the test organism.

Test [2] relates to Staphylococcus aureus. Description: MIC, broth two-fold serial dilution test, Saur. The format is cell-based. Conditions: read-out: Minimum Inhibitory Concentration (MIC). The procedure: as §1
For test [3], the system named is Rhizoctonia solani. Description: In-vitro plant fungicide test, RHI. The format is cell-based. Conditions: read-out: % Control; for inhibition of growth at 25 ppm: rate 25 PPM.
The test system of test [4] is Pythium ultimum. Description: In-vitro plant fungicide test, PYU. The format is cell-based. Conditions: Globisporangium ultimum, read-out: % Control; for inhibition of growth at 25 ppm: rate 25 PPM.
Test [5] deals with Cochliobolus sativus. Description: In-vitro plant fungicide test, HEL. The format is cell-based. Conditions: Bipolaris sorokiniana, read-out: % Control; for inhibition of growth at 25 ppm: rate 25 PPM.
For test [6], the system named is Fusarium roseum. Description: microbe, parasite or virus in culture. Conditions: Fusarium sambucinum, read-out: % Control.
Test [7] has as its system Botrytis cinerea. Description: In-vitro plant fungicide test, BOC. Conditions: read-out: % Control.
Test [8] concerns Piricularia oryzae. Description: microbe, parasite or virus in culture. Format: cell-based. Conditions: read-out: % Control.
Test [9] deals with Pseudomonas fluorescens. Description: MIC, broth two-fold serial dilution test, Psfl. Format: cell-based. Conditions: read-out: Minimum Inhibitory Concentration (MIC). The procedure:
as §1

Test [10] deals with Pseudomonas aerugenosa. Description: MIC, broth two-fold serial dilution test, Psae. Format: cell-based. Conditions: read-out: Minimum Inhibitory Concentration (MIC). The protocol:
as §1

The test system of test [11] is Escherichia coli. Description: MIC, broth two-fold serial dilution test, Ecol. Format: cell-based. Conditions: read-out: Minimum Inhibitory Concentration (MIC). The procedure: as §1
Test [12] concerns Phytophthora capsici. Description: In-vitro plant fungicide test, PHY. Format: cell-based. Conditions: read-out: % Control; for inhibition of growth at 25 ppm: rate 25 PPM.
For test [13], the system named is Aspergillus niger. Description: MIC, broth two-fold serial dilution test, Anig. Format: cell-based. Conditions: read-out: Minimum Inhibitory Concentration (MIC). The procedure:
as §1

Test [14] relates to Xanthomonas campestris. Description: In-vitro plant fungicide test, XAN. The format is cell-based. Conditions: XAN, read-out: % Control; for inhibition of growth at 25 ppm: rate 25 PPM.
Test [15] relates to Phytophthora infestans. Description: whole plant or invertebrate. Conditions: in Solanum lycopersicum, 96 h, read-out: % Control. The format is in vivo.
Test [16] deals with Puccinia recondita (f. sp. tritici Races PKB and PLD). Description: whole plant or invertebrate. The format is in vivo. Conditions: 240 h.
The subject of test [17] is Erysiphe graminis (f. sp. tritici). Description: whole plant or invertebrate. The format is in vivo. Conditions: Blumeria graminis.
Test [18] deals with Septoria nodorum. Description: In-vitro plant fungicide test, SEP. Format: cell-based. Conditions: Parastagonospora nodorum, read-out: % Control.

Values after ≈ are worked out from the molar mass of the structure shown. Where only a bound is given, the exact number is not on record here.

`COC(=O)N(CC#CBr)N=Cc1ccc(Cl)cc1` [Compound 1, N'-Methoxycarbonyl-N'-3-bromopropargyl 4-chlorobenzaldehyde hydrazone]: the MIC in test [1] is 63 µg/mL (≈ 191 µM); in test [2] it was more than 500 µg/mL; in test [9], more than 500 µg/mL; in test [10], 250 µg/mL (≈ 759 µM); in test [11], more than 500 µg/mL; in test [13] it was more than 500 µg/mL. In addition, the inhibition of growth at 25 ppm in [3], in [4], in test [5], in test [6], in test [7] and in [8] was 0% throughout. Also, the inhibition of growth at 25 ppm in test [12] and in test [14] was 0% in each case.
With `O=CN(CC#CBr)N=Cc1ccc(Cl)cc1` [Compound 2, N'-Formyl-N'-3-bromopropargyl 4-chlorobenzaldehyde hydrazone], the MIC was 63 µg/mL (≈ 210 µM) in [1]; more than 500 µg/mL in test [2]; more than 500 µg/mL in test [9]; 250 µg/mL (≈ 835 µM) in test [10]; more than 500 µg/mL in test [11]; more than 500 µg/mL in test [13]. Besides, the pest or weed control at 600 ppm was determined as 50% in [15], 0% in [16] and 0% in test [17]. Further, the inhibition of growth at 25 ppm was found to be 0% in test [3]; 0% in [4]; 0% in test [5]; 0% in [6]; 0% in [7]; 50% in test [8]. Also, the inhibition of growth at 25 ppm in test [12] is 75%; in [14], 0%.
On to `O=C(c1ccccc1)N(CC#CI)N=Cc1ccccc1` [Compound 6, N'-Benzoyl-N'-3-iodopropargyl benzaldehyde hydrazone], for which the MIC in [1] was determined as 3 µg/mL (≈ 7.73 µM); in test [2] it was 50 µg/mL (≈ 129 µM); in [9] it was 50 µg/mL (≈ 129 µM); in test [10], 25 µg/mL (≈ 64.4 µM); in test [11], 50 µg/mL (≈ 129 µM); in test [13], 6 µg/mL (≈ 15.5 µM). Besides, the inhibition of growth at 25 ppm in [3] amounted to 0%; in test [18] (rate 25 PPM), 100%; in test [4] it was 100%; in [5] it was 0%; in [6], 0%; in test [7] it was 0%. Further, the inhibition of growth at 25 ppm was 100% in [8], 100% in test [12] and 0% in [14].
`O=C(c1ccccc1)N(CC#CI)N=Cc1cccc([N+](=O)[O-])c1` [Compound 12, N'-Benzoyl-N'-3-iodopropargyl 3-nitrobenzaldehyde hydrazone]: the MIC is 100 µg/mL (≈ 231 µM) in [1]; more than 100 µg/mL in test [2]; more than 100 µg/mL in [9]; more than 100 µg/mL in test [10]; more than 100 µg/mL in test [11]; more than 100 µg/mL in test [13]. Moreover, the inhibition of growth at 50 ppm stood at 95% in test [3] (rate 50 PPM); 0% in [18] (rate 50 PPM); 0% in test [4] (rate 50 PPM); 0% in test [5] (rate 50 PPM); 0% in [6]; 0% in [7]. For the same compound, the figures for the inhibition of growth at 50 ppm in test [8], in test [12] (rate 50 PPM) and in test [14] (rate 50 PPM) were 100%, 0% and 0%, respectively.
